Measured values published in US20040076974A1, “Liver necrosis predictive genes” (priority 2002, published 2004).
Several values for one entry are separate records, joined by “and”; a condition that tells them apart may be missing. Identical values can stand only once. Like-named read-outs stand apart in the source and are kept apart here.

Assays:
Sprague Dawley rats = settings: rat; for Score (histopathology liver necrosis severity score): Sprague Dawley, 72 h; for Score (histopathology liver necrosis severity score) / Liver Necrosis: ip
Method: Sprague Dawley rats Crl:CD from Charles River, Raleigh, N.C. were divided into treated rats that receive a specific concentration of the compound (see Table 1) and. control rats that only received the vehicle in which the compound is mixed (e.g., saline).
At specified timepoints (6 h, 24 h and 72 h) after administration (intraperitoneal route) of the compound, a set number of rats (usually 3 control and 3 treated) were euthanized and tissues collected. Each, rat was heavily sedated with an overdose of CO2 by inhalation and a maximum amount of blood drawn. Exsanguination of the rat by this drawing of blood kills the rat. The method of collecting the tissues is very important and ensures preserving the quality of the mRNA in the tissues. The body of the rat was then opened up and prosectors rapidly removed the tissues (including) and immediately placed them into liquid nitrogen. […] The organs/tissues were then packaged into well-labeled plastic freezer quality bags and stored at −80 degrees until needed for isolation of the mRNA from a portion of the organ/tissue sample.
Histopathology scores for each animal (assigned on a compound-dose basis as indicated in Table 1) were entered with gene expression data by using the GeneSpring™ ‘Drawn Gene’ function. Correlations between the histopathology scores and gene expression were conducted with the distance measures listed below:
Toxicity classifications were entered for training and test set as a parameter column. Toxicity, as defined by observation of necrosis in the at 72 hours after treatment, was entered as a “yes” or “no” for each animal in a compound-dose group. Additionally, a parameter column for random histopathology classification was designated. This was done by randomly assigning the same number of “yes” and “no” calls to the individual animals.

[1] = tested on: toxicologically relevant rat genes (rat CT array)
[2] = 24 h, dose 1000, listed as APAP

Compound: CC(=O)Nc1ccc(O)cc1 [acetaminophen]
- Score (histopathology liver necrosis severity score) (Sprague Dawley rats; in vivo, 250 mg/kg): 1
- Score (histopathology liver necrosis severity score) (Sprague Dawley rats; in vivo, 1000 mg/kg): 2
- toxicity at the high dose (Sprague Dawley rats; in vivo): produced toxicity
- Liver Necrosis (Sprague Dawley rats; in vivo, 250 mg/kg): no
- Liver Necrosis (Sprague Dawley rats; in vivo, 1000 mg/kg): Yes
- toxicity at the low dose (Sprague Dawley rats; low dose of Table 1, liver necrosis at 72 hours): not at the low dose
- Aflatoxin B1 aldehyde reductase expression (treatment/control) ([1]; 24 h): 3.687 and 4.607 and 5.763
- 3-hydroxyisobutyrate dehydrogenase expression (treatment/control) [1, 2]: 0.8093 and 0.6875 and 0.5181
- 14-3-3 zeta expression (treatment/control) [1, 2]: 1.279 and 1.34 and 2.193
- 25-DX expression (treatment/control) [1, 2]: 1.304 and 1.667 and 1.897
- 60S ribosomal protein L6 expression (treatment/control) [1, 2]: 1.31 and 2.123 and 2.39
- Alpha 1 - inhibitor III expression (treatment/control) [1, 2]: 0.4712 and 0.4696 and 0.2941
- Alpha-2-macroglobulin expression (treatment/control) [1, 2]: 0.5487 and 0.4873 and 0.3551
- Apolipoprotein CIII expression (treatment/control) [1, 2]: 0.702 and 0.753 and 0.464
- Bax (alpha) expression (treatment/control) [1, 2]: 1.285 and 1.306 and 1.621
- Calpactin I heavy chain expression (treatment/control) [1, 2]: 1.347 and 1.282 and 1.692
- Carbamyl phosphate synthetase I expression (treatment/control) [1, 2]: 0.7736 and 0.7076 and 0.6953
- Carbonyl reductase expression (treatment/control) [1, 2]: 1.218 and 1.144 and 1.992
- Cofilin expression (treatment/control) [1, 2]: 0.9081 and 0.9679 and 1.261
- DNA polymerase beta expression (treatment/control) [1, 2]: 0.8811 and 1.223 and 1.54
- Elongation factor-1 alpha expression (treatment/control) [1, 2]: 1.174 and 1.533 and 1.746
- Endogenous retroviral sequence, 5′ and 3′ LTR expression (treatment/control) [1, 2]: 1.114 and 1.112 and 1.648
- Enolase alpha expression (treatment/control) [1, 2]: 1.382 and 2.619 and 2.308
- Epidermal growth factor expression (treatment/control) [1, 2]: 0.7557 and 0.7312 and 0.6935
- Extracellular-signal-regulated kinase 1 expression (treatment/control) [1, 2]: 0.452 and 0.4073 and 0.261
- Fas antigen expression (treatment/control) [1, 2]: 1.77 and 1.618 and 2.162
- Gadd153 expression (treatment/control) [1, 2]: 1.15 and 1.234 and 2.2302
- Glucose-regulated protein 78 expression (treatment/control) [1, 2]: 1.949 and 2.017 and 1.914
- Hepatic lipase expression (treatment/control) [1, 2]: 0.5231 and 0.4276 and 0.3047
- ID-1 expression (treatment/control) [1, 2]: 1.004 and 1.038 and 1.388
- IgE binding protein expression (treatment/control) [1, 2]: 1.117 and 1.131 and 1.528
- IkB-a expression (treatment/control) [1, 2]: 1.268 and 1.662 and 1.76
- Insulin-like growth factor binding protein 3 expression (treatment/control) [1, 2]: 0.5707 and 0.5952 and 0.4059
- Liver fatty acid binding protein expression (treatment/control) [1, 2]: 0.4243 and 0.4268 and 0.229
- MAP kinase kinase expression (treatment/control) [1, 2]: 1.017 and 1.243 and 1.361
- Macrophage inflammatory protein-1 alpha expression (treatment/control) [1, 2]: 1.158 and 1.138 and 1.685
- Matrix metalloproteinase-1 expression (treatment/control) [1, 2]: 1.41 and 1.586 and 2.447
- Melanoma-associated antigen ME491 expression (treatment/control) [1, 2]: 1.011 and 1.114 and 1.656
- Monocyte chemotactic protein receptor (CCR2) expression (treatment/control) [1, 2]: 1.194 and 1.282 and 1.728
- NADPH quinone oxidoreductase-1 (DT-diaphorase) expression (treatment/control) [1, 2]: 2.511 and 2.716 and 4.842
- Nucleoside diphosphate kinase beta isoform expression (treatment/control) [1, 2]: 1.516
- Organic anion transporter 3 expression (treatment/control) [1, 2]: 0.7554 and 0.5816 and 0.5461
- Organic cation transporter 3 expression (treatment/control) [1, 2]: 1.215 and 1.663 and 2.064
- Ornithine decarboxylase expression (treatment/control) [1, 2]: 1.918 and 2.163 and 3.092
- Phase-1 RCT 252 expression (treatment/control) [1, 2]: 0.7905 and 0.6256
- Phase-1 RCT-12 expression (treatment/control) [1, 2]: 1.884
- Phase-1 RCT-33 expression (treatment/control) [1, 2]: 0.7278 and 0.4867
- Phase-1 RCT-36 expression (treatment/control) [1, 2]: 0.9342 and 0.7084
- Phase-1 RCT-37 expression (treatment/control) [1, 2]: 1.525 and 1.704
- Phase-1 RCT-38 expression (treatment/control) [1, 2]: 0.8079 and 0.6659 and 0.4284
- Phase-1 RCT-40 expression (treatment/control) [1, 2]: 0.3766
- Phase-1 RCT-48 expression (treatment/control) [1, 2]: 0.6762 and 0.5881
- Phase-1 RCT-65 expression (treatment/control) [1, 2]: 1.498
- Phase-1 RCT-68 expression (treatment/control) [1, 2]: 2.006
- Phase-1 RCT-72 expression (treatment/control) [1, 2]: 1.676
- Phase-1 RCT-78 expression (treatment/control) [1, 2]: 0.6314 and 0.4384
- Phase-1 RCT-83 expression (treatment/control) [1, 2]: 0.6151 and 0.4373 and 0.3263
- Phase-1 RCT-88 expression (treatment/control) [1, 2]: 0.5934 and 0.6891 and 0.4014
- Phase-1 RCT-92 expression (treatment/control) [1, 2]: 0.6478 and 0.6327 and 0.3995
- Phase-1 RCT-102 expression (treatment/control) [1, 2]: 0.4854 and 0.3992 and 0.2737
- Phase-1 RCT-109 expression (treatment/control) [1, 2]: 2.054 and 2.291
- Phase-1 RCT-123 expression (treatment/control) [1, 2]: 0.983
- Phase-1 RCT-127 expression (treatment/control) [1, 2]: 0.99 and 1.472
- Phase-1 RCT-137 expression (treatment/control) [1, 2]: 0.72 and 0.8264 and 0.5868
- Phase-1 RCT-145 expression (treatment/control) [1, 2]: 1.2 and 1.522 and 2.335
- Phase-1 RCT-152 expression (treatment/control) [1, 2]: 1.202 and 1.996 and 2.355
- Phase-1 RCT-154 expression (treatment/control) [1, 2]: 2.226
- Phase-1 RCT-162 expression (treatment/control) [1, 2]: 1.476
- Phase-1 RCT-168 expression (treatment/control) [1, 2]: 0.7401 and 0.471
- Phase-1 RCT-180 expression (treatment/control) [1, 2]: 1.523 and 1.839
- Phase-1 RCT-181 expression (treatment/control) [1, 2]: 0.6749
- Phase-1 RCT-185 expression (treatment/control) [1, 2]: 0.5075 and 0.4368 and 0.3225
- Phase-1 RCT-191 expression (treatment/control) [1, 2]: 1.498 and 2.514
- Phase-1 RCT-192 expression (treatment/control) [1, 2]: 1.606 and 1.812
- Phase-1 RCT-205 expression (treatment/control) [1, 2]: 1.793
- Phase-1 RCT-213 expression (treatment/control) [1, 2]: 1.607 and 2.134
- Phase-1 RCT-214 expression (treatment/control) [1, 2]: 0.7129 and 0.7249 and 0.4326
- Phase-1 RCT-242 expression (treatment/control) [1, 2]: 1.936
- Phase-1 RCT-258 expression (treatment/control) [1, 2]: 1.198 and 1.289 and 1.628
- Phase-1 RCT-264 expression (treatment/control) [1, 2]: 0.4839 and 0.3686
- Phase-1 RCT-271 expression (treatment/control) [1, 2]: 0.5952
- Phase-1 RCT-295 expression (treatment/control) [1, 2]: 1.409 and 1.586 and 1.993
- Phase-1 RCT-296 expression (treatment/control) [1, 2]: 0.4087 and 0.2215 and 0.347
- Pyruvate kinase, muscle expression (treatment/control) [1, 2]: 1.015 and 0.9969 and 1.833
- Ref-1 expression (treatment/control) [1, 2]: 1.85 and 2.112 and 3.617
- Ribosomal protein L13A expression (treatment/control) [1, 2]: 2.348 and 2.582
- Ribosomal protein S8 expression (treatment/control) [1, 2]: 1.864 and 2.055
- Sodium/bile acid cotransporter expression (treatment/control) [1, 2]: 0.7685 and 0.5902 and 0.8858
- Superoxide dismutase Mn expression (treatment/control) [1, 2]: 1.274 and 1.178 and 1.931
- T-cell cyclophilin expression (treatment/control) [1, 2]: 0.8846 and 1.322 and 1.491
- Thymosin beta-10 expression (treatment/control) [1, 2]: 1.285 and 1.383 and 1.788
- Transthyretin expression (treatment/control) [1, 2]: 0.427 and 0.4938 and 0.34
- Ubiquitin conjugating enzyme (RAD 6 homologue) expression (treatment/control) [1, 2]: 0.9549 and 1.282 and 1.558
- Uncoupling protein 2 expression (treatment/control) [1, 2]: 1.201 and 1.111 and 1.462
- c-H-ras expression (treatment/control) [1, 2]: 1.118 and 1.069 and 0.9092
- p53 expression (treatment/control) [1, 2]: 0.8979 and 1.176 and 1.584
- {Ribosomal protein L6} expression (treatment/control) [1, 2]: 1.978 and 2.321
- Multidrug resistant protein-1 expression (treatment/control) ([1]; rat, in vivo): 1.241 and 1.202 and 1.889
- Paraoxonase 1 expression (treatment/control) ([1]; rat, in vivo): 0.5292 and 0.4965 and 0.3855
